ChEMBL document CHEMBL5230120, “Antiviral potential of natural products from marine microbes” (Eur J Med Chem, 2020)
Converted amounts (≈) assume the structure as drawn. Starred links: 1 amine or outer side, 2 acyl side, 3 side chain; linkers in the order of their positions; H or OH if unused. Positions of bridges follow the written chain, without caps; N, C: chain ends. Non-standard residues stand in square brackets, D forms with d. Residues, ends and D or L forms follow the SMILES beside them. X1 = CCCCCCCCC[C@@H](CCCC(=O)[*:1])O[*:2]; d(aThr) = C[C@@H](O)[C@@H](N)C(=O)O; dNMeY = CN[C@H](Cc1ccc(O)cc1)C(=O)O; aIle = CC[C@@H](C)[C@H](N)C(=O)O

How the values were obtained:
Human alphaherpesvirus 1 [1] = type: functional, organism-based; settings: Human alphaherpesvirus 1, Vero, 72 h
Influenza A virus [2] = test: microbe, parasite or virus in culture; settings: H3N2, MDCK, 48 h
Influenza A virus [3] = test: microbe, parasite or virus in culture; settings: H1N1, MDCK, 48 h
[4] = system: Respiratory syncytial virus; type: functional, organism-based; settings: human respiratory syncytial virus, HEp-2
Dengue virus = test: Antiviral activity against Dengue virus serotype 2 infected in HEK293T/17 cells assessed as reduction in viral production at 50 uM incubated for 24 hrs by flow cytometric analysis; type: functional; design: scale not given: the % may be the effect or the level left
Influenza A virus [5] = type: functional
Human alphaherpesvirus 1 [6] = type: functional, organism-based; settings: Human alphaherpesvirus 1, Vero, 72 h; remark: listed apart in the source
Human alphaherpesvirus 1 [7] = type: functional, organism-based; settings: Human alphaherpesvirus 1, KOS, Vero, 72 h
Influenza A virus [8] = test: microbe, parasite or virus in culture; settings: H3N2, Vero
Influenza A virus [9] = test: microbe, parasite or virus in culture; settings: A/WSN/33 (H1N1), MDCK
[10] = system: Human immunodeficiency virus 1; test: Antiviral activity against HIV-1 infected in human HEK293 cells co-expressing firefly luciferase gene assessed as inhibition of viral growth incubated for 48 hrs by firefly luciferase assay; type: functional, organism-based; settings: Human immunodeficiency virus 1, HEK293, 48 h
[11] = Cytotoxicity against human HEK293 cells assessed as reduction in cell viability; type: toxicity, cell-based
[12] = system: Human immunodeficiency virus 1; test: Antiviral activity against HIV1 VSV-G pseudotyped virus infected in human SUP-T1 cells infected using supernatant of virus-producing 293T cells incubated for 48 hrs by firefly luciferase assay; type: functional, organism-based; settings: Human immunodeficiency virus 1, HEK293, 48 h
Influenza A virus [13] = type: functional, organism-based; settings: A/Puerto Rico/8/1934(H1N1), MDCK, 48 h
Chikungunya virus = test: Antiviral activity against CHIKV infected in Golden hamster BHK-21 cells assessed as reduction in viral titer incubated for 3 days by plaque assay; type: functional, organism-based; settings: BHK-21, 72 h
Enterovirus A71 [14] = type: functional, organism-based; settings: Enterovirus A, Vero
Human alphaherpesvirus 1 [15] = type: functional, organism-based; settings: Human alphaherpesvirus 1, Vero, 72 h; remark: listed apart in the source
Human alphaherpesvirus 1 [16] = type: functional, organism-based; settings: Human alphaherpesvirus 1, Vero, 72 h; remark: listed apart in the source
Enterovirus A71 [17] = type: functional, organism-based; settings: Enterovirus A, Vero; remark: listed apart in the source
Influenza A virus [18] = type: functional, organism-based; settings: H1N1
Hepatitis C virus = test: Antiviral activity against HCV infected in human Huh7.5 cells incubated for 72 hrs by RT-PCR assay; type: functional, organism-based, Hepacivirus hominis; settings: Huh7.5, 72 h
[19] = system: Western equine encephalitis virus; test: Antiviral activity against Western equine encephalomyelitis virus Cba-87 infected in Golden hamster BSR-T7/5 cells assessed as reduction in viral RNA replication by RT-PCR analysis; type: functional, organism-based; settings: Cba-87, BSR-T7/5
Human alphaherpesvirus 1 [20] = type: functional, organism-based; settings: Human alphaherpesvirus 1, 15577, Vero
Human alphaherpesvirus 1 [21] = type: functional, organism-based; settings: Human alphaherpesvirus 1, Vero, 72 h; remark: listed apart in the source

COc1ccc(-c2cc3c(c(=O)o2)C[C@]2(O)[C@@]4(C)C(=O)C=CC(C)(C)[C@]4(O)CC[C@@]2(C)O3)cc1OC
IC50 (Human alphaherpesvirus 1 [1]): 6.34 µg/mL (≈ 12.8 µM)

CC[C@H]1O[C@@H]2O[C@H](/C=C/C=C/C=C/c3oc(=O)cc(OC/C=C(\C)C(=O)OC)c3C)[C@H](O)[C@]2(C)[C@@]1(C)O
IC50 (Influenza A virus [2]): 0.0062 µM
IC50 (Influenza A virus [3]): 3.5 µM

COC(=O)/C(C)=C/COc1cc(=O)oc(/C=C/C=C/C=C/[C@H]2O[C@H]3O[C@H](C)[C@](C)(O)[C@@]3(C)[C@H]2O)c1C
IC50 (Influenza A virus [2]): 0.0089 µM

COC(=O)[C@]1(Cc2ccc3c(c2)CCC(C)(C)O3)OC(=O)C(O)=C1c1ccc(O)cc1
IC50 (Human alphaherpesvirus 1 [1]): 28.9 µg/mL (≈ 68.1 µM)

CCCCC/C=C/C1=C(CO)[C@@H]2OC(C)(C)[C@@H](O)C[C@@]23O[C@H]3[C@@H]1O
IC50 [4]: 30.2 µM

CC(C)[C@@H]1NC(=O)[C@@H](C[C@@]2(O)c3ccccc3N3C(=O)C(C)(C)N[C@@H]32)n2c1nc1ccccc1c2=O
Activity (Dengue virus): 50%

CC(=O)c1c(O)cc2c3c(cccc13)C=C(C[C@@H](C)O)O2
inhibition at 50 µg/mL (Influenza A virus [5]): 42.5%

CCCCCCCCC[C@H]1CCCC(=O)N[C@H](CO)C(=O)N[C@H](C)C(=O)N2CCC[C@H]2C(=O)N[C@@H](CCC(N)=O)C(=O)N[C@H](Cc2ccc(O)cc2)C(=O)N[C@@H](C(C)C)C(=O)O1
EC50 (Human alphaherpesvirus 1 [6]): 15.6 µM

COc1cc(O)c2c(c1)[C@H](O)[C@](O)(CC(C)=O)CC2=O
IC50 (Human alphaherpesvirus 1 [7]): 0.1 µg/mL (≈ 0.357 µM)

CC(=O)[C@H]1CC[C@H]2C3=CC(=O)[C@H]4C[C@H](O)CC[C@]4(C)[C@H]3CC[C@]12C
IC50 (Influenza A virus [8]): 16.2 µM

COc1cc(O)c2c(c1)[C@H](O)[C@@H](CC(C)=O)CC2=O
IC50 (Human alphaherpesvirus 1 [7]): 1 µg/mL (≈ 3.78 µM)

C=C(C)C#CC1=C[C@@H]2O[C@@H](C(C)(C)O)C[C@]23O[C@@H]3[C@@H]1O
IC50 (Influenza A virus [9]): 30.4 µM

COc1cc(CCCC(C)C)oc(=O)c1C
IC50 [10]: 16.1 µM
IC50 [11]: > 100 µM

O=C1C[C@H](O)Cc2cc3cc(O)cc(-c4ccccc4)c3c(O)c21
inhibition at 50 µg/mL (Influenza A virus [5]): 47.8%

C=C(CC[C@@H](C)[C@H]1CC=C2C3=C(CC[C@@]21C)[C@@]1(C)CC[C@H](O)C[C@@H]1CC3=O)C(C)C
IC50 [12]: 3.5 µM

CC1(C)CCc2cc(/C=C3\OC(=O)C=C3c3ccc(O)cc3)ccc2O1
IC50 (Influenza A virus [13]): 87.1 µM

CO[C@@H](CC[C@H](C)[C@H]1O[C@@]23C[C@H](OC(=O)C[C@H]([C@@H](C)O)OC(=O)C[C@](OC)(O2)[C@H](C)CC3(C)C)[C@@H]1C)c1cccc(O)c1
IC50 (Chikungunya virus): 2.7 µM

CC(O)c1cc2c(cc1O)C(=O)c1cc(O)cc(O)c1C2=O (stereo unspecified)
IC50 (Enterovirus A71 [14]): 25.7 µM

C[C@@H]1C/C=C/C(=O)C/C=C/[C@H](O)CC(=O)O1
IC50 (Human alphaherpesvirus 1 [15]): 0.45 µM

COc1cc(O)c2c(c1)[C@@H]1OC(C)(OC)C[C@]1(O)CC2=O (stereo partly specified)
IC50 (Human alphaherpesvirus 1 [7]): 0.1 µg/mL (≈ 0.34 µM)

CC(C)/C=c1\[nH]c(=O)/c(=C/c2ccc(O)cc2)[nH]c1=O
IC50 (Influenza A virus [13]): 41.5 µM

CCCCC/C=C/C1=C(CO)[C@@H]2OC(C)(C)[C@@H](O)C[C@]2(O)[C@H](O)[C@@H]1O
IC50 [4]: 72 µM

C=C(C)C#CC1=C[C@@H]2O[C@@H](C(C)(C)O)C[C@]23O[C@@H]3[C@H]1O
IC50 [11]: > 100 µM

CC(=O)C(C)(O)CCCCC[C@H]1C=CC(=O)O1 (stereo partly specified)
EC50 (Human alphaherpesvirus 1 [16]): 25.4 µM

Cc1c2c(c3oc4c(C)c(=O)c(C)c5c-4c(c3c1O)O[C@H](C)[C@H]5C)O[C@H](C)[C@H]2C
IC50 (Enterovirus A71 [17]): 14.5 µM

O=C(O)c1ccccc1Nc1c(C[C@H](O)[C@H](O)CO)[nH]c2c(C(=O)O)cccc12
IC50 (Influenza A virus [18]): 171 µM

COc1cc(O)c2c(c1)[C@H](O)[C@](O)(CO)CC2=O
IC50 (Human alphaherpesvirus 1 [7]): 1 µg/mL (≈ 3.93 µM)

COc1cc(O)c2c(c1)[C@H](O)[C@](O)(CC(C)O)CC2=O (stereo partly specified)
IC50 (Human alphaherpesvirus 1 [7]): 0.01 µg/mL (≈ 0.0354 µM)

CC[C@H](C)c1nc(OC)c(Cc2c[nH]c3ccccc23)nc1O
IC50 (Hepatitis C virus): 7.7 µM
IC50 [12]: 4.6 µM

COc1ccc(-c2cc3c(c(=O)o2)C[C@H]2[C@@](C)(CC[C@@]4(O)C(C)(C)OC(=O)CC[C@]24C)O3)cc1
IC50 (Human alphaherpesvirus 1 [1]): 16.4 µg/mL (≈ 35 µM)

CC(C)CC[C@@H]1NC(=O)/C(=C/c2ccccc2)NC1=O
IC50 (Influenza A virus [13]): 6.8 µM

CCC[C@H]1C[C@H]2OC(=O)c3c(cc(O)c(OC)c3O)[C@H]2O1
IC50 (Influenza A virus [13]): 172 µM

CCCCCCCC[C@H]1C(=O)O[C@H](C)[C@H](NC(=O)c2cccc(NC=O)c2O)C(=O)O[C@@H](C)[C@@H]1OC(=O)CC(C)CC (stereo partly specified)
IC50 [19]: 0.003 µM

COC1(Cc2ccc(O)cc2)OC(=O)C(O)=C1c1ccc(O)cc1 (stereo unspecified)
IC50 (Human alphaherpesvirus 1 [1]): 21.8 µg/mL (≈ 66.4 µM)

CC(C)[C@@H](NC(=O)[C@H](Cc1c[nH]c2ccccc12)NC(=O)[C@H](N)Cc1ccc(O)cc1)C(=O)O
IC50 (Human alphaherpesvirus 1 [20]): 19.8 µM

COc1cc(O)c2c(c1)[C@H](O)[C@@H](CO)CC2=O
IC50 (Human alphaherpesvirus 1 [7]): 1 µg/mL (≈ 4.2 µM)

CO[C@@H](CC[C@H](C)[C@H]1O[C@]23C[C@H](OC(=O)C[C@H]([C@@H](C)O)OC(=O)CC(=C(C)CC2(C)C)O3)[C@@H]1C)c1cccc(O)c1
IC50 (Chikungunya virus): 22.3 µM

CC(=O)[C@H]1CC[C@H]2C3=CC(=O)[C@@]4(C)C[C@H](O)CC[C@]4(C)[C@H]3CC[C@]12C
IC50 [4]: 0.12 µM

CCCCCCCCC[C@H]1CCCC(=O)N[C@H]([C@@H](C)O)C(=O)N[C@H](C)C(=O)N2CCC[C@H]2C(=O)N[C@@H](CCC(N)=O)C(=O)N[C@H](Cc2ccc(O)cc2)C(=O)N[C@@H](C(C)C)C(=O)O1
EC50 (Human alphaherpesvirus 1 [6]): 16.7 µM

CCC(C)[C@@H]1C(=O)/C(=C(/O)[C@@H]2[C@@H]([C@@H]3O[C@H]3C)C(C)=C[C@@H]3CCC[C@H](C)[C@@H]23)C(=O)N1C (stereo partly specified)
IC50 (Human alphaherpesvirus 1 [21]): 3.08 µM

C/C=C(\C)[C@H]1C(C)=C[C@@H]2CCC[C@H](C)[C@H]2[C@@H]1/C(O)=C1\C(=O)[C@@H](C(C)C)N(C)C1=O
IC50 (Human alphaherpesvirus 1 [21]): 3.12 µM

CC1=C[C@@H]2CCC[C@H](C)[C@H]2[C@H](/C(O)=C2\C(=O)[C@@H](C(C)C)N(C)C2=O)[C@H]1[C@@H]1O[C@H]1C
IC50 (Human alphaherpesvirus 1 [21]): 9.37 µM

CCCCCCCCC[C@H]1CCCC(=O)N[C@H]([C@@H](C)O)C(=O)N[C@H](C)C(=O)N2CCC[C@H]2C(=O)N[C@@H](CCC(N)=O)C(=O)N[C@H](Cc2ccc(O)cc2)C(=O)N[C@@H]([C@H](C)CC)C(=O)O1 ([d(aThr)][dA]PQ[dY][aIle]; linker N-C via X1)
EC50 (Human alphaherpesvirus 1 [6]): 14 µM

COc1ccc(C[C@@H]2NC(=O)[C@@H]3CCCN3C(=O)[C@H](C(C)C)NC(=O)[C@@H](Cc3ccc(O)cc3)N(C)C(=O)[C@H](Cc3ccc(OC)cc3)NC2=O)cc1 (cyclo(PY(Me)Y(Me)[dNMeY]V))
IC50 (Human alphaherpesvirus 1 [20]): 9.5 µM

Nc1nc2c(ncn2COCCO)c(=O)[nH]1 [ACYCLOVIR]
IC50 (Human alphaherpesvirus 1 [21]): 3.5 µM
EC50 (Human alphaherpesvirus 1 [6]): 3 µM

CO[C@@H](CC[C@H](C)[C@H]1O[C@@]23C[C@H](OC(=O)C[C@H]([C@@H](C)O)OC(=O)C[C@](O)(O2)[C@H](C)CC3(C)C)[C@@H]1C)c1cccc(O)c1 [DEBROMOAPLYSIATOXIN]
IC50 (Chikungunya virus): 1.3 µM

O=C1Nc2ccc(Cl)cc2[C@@](C#CC2CC2)(C(F)(F)F)O1 [EFAVIRENZ]
IC50 [11]: 40.6 µM

Nc1nc2c(ncn2COC(CO)CO)c(=O)[nH]1 [GANCICLOVIR]
EC50 (Human alphaherpesvirus 1 [16]): 0.025 µM

CCC[C@H]1C[C@H]2OC(=O)c3c(cc(OC)c(OC)c3O)[C@H]2O1 [MONOCERIN]
IC50 (Influenza A virus [13]): 176 µM

CCOC(=O)C1=C[C@@H](OC(CC)CC)[C@H](NC(C)=O)[C@@H](N)C1 [OSELTAMIVIR]
IC50 (Influenza A virus [8]): 0.034 µM
IC50 (Influenza A virus [9]): 46.7 µM

NC(=O)c1ncn([C@@H]2O[C@H](CO)[C@@H](O)[C@H]2O)n1 [RIBAVIRIN]
inhibition at 50 µg/mL (Influenza A virus [5]): 45.3%
IC50 (Influenza A virus [18]): 133 µM
IC50 (Influenza A virus [13]): 38.8 µM
IC50 (Enterovirus A71 [17]): 13.3 µM
IC50 [4]: 0.08 µM
IC50 (Enterovirus A71 [14]): 13.3 µM
